According to ChEMBL document CHEMBL1201862, “PubChem BioAssay data set” (2004):
Activity calls are given as the source filed them.

What was measured:
[1] = blockers of HIV-1 ZM109 envelope-driven cell-cell fusion – HeLa effector, CEM target cells, luciferase, cherry-pick, dose response (AID 652058); format: functional, cell-based;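 also: luciferase signal from HIV-1 Env mediated cell-cell fusion of effector and target cells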
[2] = blockers of HIV-1 envelope-mediated cell-cell fusion – cherry-pick, dose response (AID 652057); format: functional, cell-based
[3] = off-target signal loss in HeLa-CEM21 co-culture – HeLa F-luc CTL cells, cherry-picked, counter-screen for HIV-1 Env fusion inhibitor project, dose response (AID 652040); format: functional, cell-based;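 also: potency for signal decrease marking cytotoxic or nonspecific inhibition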
[4] = HIV-1 AD8 envelope cell-cell fusion blockers – cherry-pick, dose response (AID 652062); format: functional, cell-based;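 also: luciferase signal from cell-cell fusion driven by HIV-1 clade B AD8 Env; potency is for inhibitors of fusion seen as a drop in luminescence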
[5] = test system: P388/ADR; assay: cells; format: functional; conditions: Mus musculus
[6] = test system: P388; assay: cells; format: functional; conditions: Mus musculus
[7] = test system: SN12K1; assay: cells; format: functional; conditions: Homo sapiens
[8] = biological target: T1, Histone-lysine N-methyltransferase NSD2 (Homo sapiens, UniProt O96028); format: biochemical
T1 sequence (O96028 whole entry): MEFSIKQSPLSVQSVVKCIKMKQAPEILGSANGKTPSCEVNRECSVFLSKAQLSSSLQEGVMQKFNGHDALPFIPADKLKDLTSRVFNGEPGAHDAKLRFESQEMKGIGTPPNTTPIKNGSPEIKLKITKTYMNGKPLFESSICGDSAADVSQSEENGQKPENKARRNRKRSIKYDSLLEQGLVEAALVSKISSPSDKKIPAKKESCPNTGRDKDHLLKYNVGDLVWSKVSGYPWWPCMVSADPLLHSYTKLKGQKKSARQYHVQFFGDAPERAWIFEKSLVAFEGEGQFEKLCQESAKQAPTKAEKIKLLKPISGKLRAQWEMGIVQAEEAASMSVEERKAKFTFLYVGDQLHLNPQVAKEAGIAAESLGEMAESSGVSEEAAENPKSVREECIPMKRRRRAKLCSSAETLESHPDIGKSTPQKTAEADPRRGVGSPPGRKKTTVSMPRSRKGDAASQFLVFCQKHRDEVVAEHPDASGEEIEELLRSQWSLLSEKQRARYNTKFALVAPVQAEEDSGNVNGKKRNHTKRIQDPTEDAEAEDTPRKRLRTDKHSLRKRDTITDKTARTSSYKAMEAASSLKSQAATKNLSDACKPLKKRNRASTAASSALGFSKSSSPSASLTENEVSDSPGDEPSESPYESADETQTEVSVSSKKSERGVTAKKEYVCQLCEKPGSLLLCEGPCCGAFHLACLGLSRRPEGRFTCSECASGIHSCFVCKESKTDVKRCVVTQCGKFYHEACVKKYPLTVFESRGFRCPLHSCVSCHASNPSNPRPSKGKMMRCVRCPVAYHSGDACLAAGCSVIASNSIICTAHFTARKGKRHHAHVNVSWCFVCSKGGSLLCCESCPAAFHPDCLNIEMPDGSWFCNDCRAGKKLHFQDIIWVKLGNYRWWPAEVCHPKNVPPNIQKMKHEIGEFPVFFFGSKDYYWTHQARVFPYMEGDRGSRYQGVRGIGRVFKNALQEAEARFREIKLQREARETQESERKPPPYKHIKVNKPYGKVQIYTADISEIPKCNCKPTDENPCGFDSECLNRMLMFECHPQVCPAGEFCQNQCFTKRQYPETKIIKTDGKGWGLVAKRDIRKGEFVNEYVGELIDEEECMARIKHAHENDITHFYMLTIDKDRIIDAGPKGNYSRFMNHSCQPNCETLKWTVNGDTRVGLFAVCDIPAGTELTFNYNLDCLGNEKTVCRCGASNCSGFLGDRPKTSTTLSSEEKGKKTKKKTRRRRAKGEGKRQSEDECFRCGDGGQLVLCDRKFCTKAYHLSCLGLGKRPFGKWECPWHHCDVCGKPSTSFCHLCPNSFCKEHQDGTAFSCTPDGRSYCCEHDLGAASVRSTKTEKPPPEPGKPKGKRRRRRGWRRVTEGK

[9] = biological target: T2, Rac GTPase-activating protein 1 (Homo sapiens, UniProt Q9H0H5); assay: blockers of MgcRacGAP-driven Rac1 GTP hydrolysis – biochemical, ADP Hunter fluorescence, primary and confirmatory, confirmation (AID 624330); format: functional
T2 sequence (Q9H0H5 whole entry): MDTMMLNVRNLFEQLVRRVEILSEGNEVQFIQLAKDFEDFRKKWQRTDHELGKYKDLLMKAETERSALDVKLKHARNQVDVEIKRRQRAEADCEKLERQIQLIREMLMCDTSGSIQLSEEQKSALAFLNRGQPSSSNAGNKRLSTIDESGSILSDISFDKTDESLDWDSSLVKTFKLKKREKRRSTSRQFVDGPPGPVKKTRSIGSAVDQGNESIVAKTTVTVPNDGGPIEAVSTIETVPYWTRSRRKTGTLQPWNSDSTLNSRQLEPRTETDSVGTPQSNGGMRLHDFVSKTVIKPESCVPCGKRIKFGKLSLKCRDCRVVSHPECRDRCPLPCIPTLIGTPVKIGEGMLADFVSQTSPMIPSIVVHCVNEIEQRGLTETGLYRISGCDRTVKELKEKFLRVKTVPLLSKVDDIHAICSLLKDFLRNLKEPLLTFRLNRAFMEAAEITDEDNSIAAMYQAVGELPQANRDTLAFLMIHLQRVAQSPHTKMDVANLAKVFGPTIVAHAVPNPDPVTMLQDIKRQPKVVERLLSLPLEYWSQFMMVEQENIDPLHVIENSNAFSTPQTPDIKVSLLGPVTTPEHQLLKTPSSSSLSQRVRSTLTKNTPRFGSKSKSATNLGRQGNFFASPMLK

[10] = biological target: T3, Ubiquitin-conjugating enzyme E2 N (Homo sapiens, UniProt P61088); format: functional;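 also: Dose-response confirmation in a TR-FRET assay detecting UBC13-driven polyubiquitin chain formation, inhibition measured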
T3 sequence (P61088 whole entry): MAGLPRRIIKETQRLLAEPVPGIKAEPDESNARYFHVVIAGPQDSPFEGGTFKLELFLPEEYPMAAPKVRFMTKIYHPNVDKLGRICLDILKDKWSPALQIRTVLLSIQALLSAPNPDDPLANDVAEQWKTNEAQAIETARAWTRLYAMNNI

[11] = THP-1 cell cytotoxicity, dose response, cytotoxicity control for non-replicating M. tuberculosis project (AID 489025); format: functional
[12] = Vero E6 cell cytotoxicity, dose response, cytotoxicity control for non-replicating M. tuberculosis project, secondary assay (AID 492998); format: functional, VeroE6; conditions: Vero C1008
[13] = microbe, parasite or virus in culture; format: functional; conditions: Mycobacterium tuberculosis
[14] = cells; format: functional
[15] = biological target: FAD-linked sulfhydryl oxidase ALR (Homo sapiens, UniProt P55789); assay: ALR-catalysed DTT oxidation blockers – biochemical, H2O2 detection, luminescence, cherry-pick, dose response (AID 493248)
[16] = biological target: DNA dC->dU-editing enzyme APOBEC-3A (Homo sapiens, UniProt P31941); assay: A3A deaminase inhibition for selectivity – biochemical, dose response (AID 504722); format: functional
[17] = biological target: DNA dC->dU-editing enzyme APOBEC-3G (Homo sapiens, UniProt Q9HC16); assay: Dose Response confirmation of small molecule APOBEC3G DNA Deaminase Inhibitors via a fluorescence-based single-stranded DNA deaminase assay. [Related pubchem assays (depositor defined):AID493012, AID493028]; format: functional
Chain of DNA dC->dU-editing enzyme APOBEC-3G (Q9HC16 whole entry): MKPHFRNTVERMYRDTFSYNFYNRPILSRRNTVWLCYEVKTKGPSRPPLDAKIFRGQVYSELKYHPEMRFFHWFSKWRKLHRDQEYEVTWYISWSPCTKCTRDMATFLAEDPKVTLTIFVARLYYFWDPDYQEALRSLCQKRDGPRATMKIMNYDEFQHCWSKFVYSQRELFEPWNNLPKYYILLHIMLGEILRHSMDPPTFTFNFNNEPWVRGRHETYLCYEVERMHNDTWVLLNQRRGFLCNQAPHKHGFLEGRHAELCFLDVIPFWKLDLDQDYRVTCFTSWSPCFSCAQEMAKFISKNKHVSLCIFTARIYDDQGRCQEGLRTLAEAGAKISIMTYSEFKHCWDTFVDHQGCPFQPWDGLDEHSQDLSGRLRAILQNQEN

Chain of FAD-linked sulfhydryl oxidase ALR (P55789 whole entry): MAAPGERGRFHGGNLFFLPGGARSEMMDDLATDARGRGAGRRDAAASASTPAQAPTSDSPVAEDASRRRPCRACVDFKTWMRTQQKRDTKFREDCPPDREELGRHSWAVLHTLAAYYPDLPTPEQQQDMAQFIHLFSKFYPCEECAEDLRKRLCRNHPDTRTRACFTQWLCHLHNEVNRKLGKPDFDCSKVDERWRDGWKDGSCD
Chain of DNA dC->dU-editing enzyme APOBEC-3A (P31941 whole entry): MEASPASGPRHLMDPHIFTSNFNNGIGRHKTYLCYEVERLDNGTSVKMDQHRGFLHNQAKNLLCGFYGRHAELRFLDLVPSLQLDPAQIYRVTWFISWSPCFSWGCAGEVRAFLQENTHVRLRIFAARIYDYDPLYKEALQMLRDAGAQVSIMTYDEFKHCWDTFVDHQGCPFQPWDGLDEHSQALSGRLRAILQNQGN

SMILES: Cc1sc2ncnc(N3CCC(C(=O)Nc4cc(S(C)(=O)=O)ccc4Cl)CC3)c2c1C
- AC50 [1]: 3.3 µM (active)
- AC50 [2]: 8.97 µM (active)
- AC50 [3]: 30.5 µM (active)
- AC50 [4]: 12.3 µM (active)

SMILES: COC1C(C)OC(OC2CC(C)(O)Cc3cc4c(c(O)c32)C(=O)c2c(O)cc3c(c2C4=O)OC2OC3(C)C(O)C(N(C)C)C2O)C(OC)C1(C)OC (configuration not stated)
- GI50 [5]: 0.5 µM (active)
- GI50 [6]: 0.0228 µM (active)
- GI50 [7]: 0.0168 µM (active)

SMILES: COc1ccc(C)cc1NCc1ccc(OC)c(C)c1OC
- AC50 [8]: > 20 µM (inactive)
- IC50 [9]: 59.5 µM (active)

SMILES: Cc1ccnc(NCc2c(O)ccc3ccccc23)c1
- IC50 [10]: > 20 µM (inactive)

SMILES: CCCCCn1c(=O)c2ccccc2n2c(CCl)nnc12
- CC50 [11]: 19.2 µM (active)
- CC50 [12]: > 20 µM (active)
- CC50 [13]: 11.7 µM (active)
- IC50 [14]: 0.67 µM (active)

SMILES: COc1cccc(/C=C2\SC(N3CCCC(C)C3)=NC2=O)c1OC (configuration not stated)
- AC50 [15]: 5.2 µM (active)

SMILES: CC1(C)CC(=O)c2cnn(-c3nc4ccccc4[nH]3)c2C1
- AC50 [15]: 14.8 µM (active)

SMILES: COc1ccc(S(=O)(=O)N2CCCCC2)cc1NC(=O)Cc1ccsc1
- AC50 [8]: 17.1 µM (active)

SMILES: C[C@H]1CC[C@H](NC(=O)N(CCCl)N=O)CC1
- GI50 [5]: 9.73 µM (inactive)
- GI50 [6]: 9.53 µM (inactive)
- GI50 [7]: 26 µM (inactive)

SMILES: Cc1nnc(S)n1/N=C/c1ccc(-c2ccccc2[N+](=O)[O-])o1
- IC50 [16]: > 100 µM (inactive)
- IC50 [17]: 4.2 µM (active)

SMILES: COc1cc[n+](C)cc1
- GI50 [5]: > 100 µM (inactive)
- GI50 [6]: > 100 µM (inactive)
- GI50 [7]: > 100 µM (inactive)

SMILES: COc1cc(-c2ccc(/N=N/c3c(S(=O)(=O)O)cc4cc(S(=O)(=O)O)cc(N)c4c3O)c(OC)c2)ccc1/N=N/c1c(S(=O)(=O)O)cc2cc(S(=O)(=O)O)cc(N)c2c1O
- GI50 [6]: > 100 µM (inactive)
- GI50 [7]: > 100 µM (inactive)

SMILES: COC(=O)C1=C(C)N(Cc2ccc(Cl)cc2)C(=S)NC1c1ccc(OC)cc1 (configuration not stated)
- AC50 [1]: 5.23 µM (active)
- AC50 [2]: 3.25 µM (active)
- AC50 [3]: 5.7 µM (active)
- AC50 [4]: 12.6 µM (active)

SMILES: CCC[S+]([O-])c1nc(COC(=O)NC)c(COC(=O)NC)n1C (configuration not stated)
- GI50 [5]: > 100 µM (inactive)
- GI50 [6]: > 100 µM (inactive)
- GI50 [7]: > 100 µM (inactive)

SMILES: S=P(N1CC1)(N1CC1)N1CC1 [THIOTEPA]
- GI50 [5]: 7.41 µM (inactive)
- GI50 [6]: 6.93 µM (inactive)
- GI50 [7]: > 89.1 µM (inactive)
